The supplement of paper PMC10307832

Experiments:
Experiment in all cases: relative viability (nuclei count vs DMSO), 5 days (fraction); higher = more cells survive
NCI-H1792 = tested on: NCI-H1792
In short: (§1)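 Lung cancer cell lines in 1536-well plates got either a single drug or a fixed anchor-drug dose together with five library-drug doses (not always all listed) in √10 steps, by pin tool, on the day after seeding. Nuclei were counted after 5 days, and relative viability is the treated-to-vehicle ratio of nuclei counts. Values are medians of duplicate plates.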

NCI-H2087 = tested on: NCI-H2087
In short: as §1

SW 1573 = tested on: SW 1573
In short: as §1

NCI-H1650 = tested on: NCI-H1650
In short: as §1

NCI-H2126 = tested on: NCI-H2126
In short: as §1

LU99A = tested on: LU99A
In short: as §1

NCI-H1944 = tested on: NCI-H1944
In short: as §1

NCI-H727 = tested on: NCI-H727
In short: as §1

RERF-LC-KJ = tested on: RERF-LC-KJ
In short: as §1

EPLC-272H = tested on: EPLC-272H
In short: as §1

LCLC-97TM1 = tested on: LCLC-97TM1
In short: as §1

BEN = tested on: BEN
In short: as §1

LK-2 = tested on: LK-2
In short: as §1

NCI-H358 = tested on: NCI-H358
In short: as §1

NCI-H1734 = tested on: NCI-H1734
In short: as §1

SK-MES-1 = tested on: SK-MES-1
In short: as §1

HCC-827 = tested on: HCC-827
In short: as §1

ChaGo-K-1 = tested on: ChaGo-K-1
In short: as §1

EKVX = tested on: EKVX
In short: as §1

COR-L 105 = tested on: COR-L 105
In short: as §1

LOU-NH91 = tested on: LOU-NH91
In short: as §1

EMC-BAC-2 = tested on: EMC-BAC-2
In short: as §1

## O=c1[nH]c2ccccc2n1C1CCN(CCCC(c2ccc(F)cc2)c2ccc(F)cc2)CC1 [Pimozide] + CCNC(=O)c1noc(-c2cc(C(C)C)c(O)cc2O)c1-c1ccc(CN2CCOCC2)cc1 [Luminespib] (partner 0.01 µM)
NCI-H1792; first compound 0.08 µM
  relative viability: 0.525
NCI-H1792; first compound 0.253 µM
  relative viability: 0.424
NCI-H1792; first compound 0.8 µM
  relative viability: 0.403
NCI-H1792; first compound 2.53 µM
  relative viability: 0.477
NCI-H1792; first compound 8 µM
  relative viability: 0.498
NCI-H2087; first compound 0.08 µM
  relative viability: 0.192
NCI-H2087; first compound 0.253 µM
  relative viability: 0.205
NCI-H2087; first compound 2.53 µM
  relative viability: 0.171
NCI-H2087; first compound 8 µM
  relative viability: 0.228
SW 1573; first compound 0.08 µM
  relative viability: 0.214
SW 1573; first compound 0.253 µM
  relative viability: 0.301
SW 1573; first compound 0.8 µM
  relative viability: 0.188
SW 1573; first compound 2.53 µM
  relative viability: 0.223
SW 1573; first compound 8 µM
  relative viability: 0.198
NCI-H1650; first compound 0.08 µM
  relative viability: 0.206
NCI-H1650; first compound 0.253 µM
  relative viability: 0.204
NCI-H1650; first compound 0.8 µM
  relative viability: 0.187
NCI-H1650; first compound 2.53 µM
  relative viability: 0.187
NCI-H1650; first compound 8 µM
  relative viability: 0.199
NCI-H2126; first compound 0.08 µM
  relative viability: 0.901
NCI-H2126; first compound 0.253 µM
  relative viability: 0.889
NCI-H2126; first compound 0.8 µM
  relative viability: 0.842
NCI-H2126; first compound 2.53 µM
  relative viability: 0.877
NCI-H2126; first compound 8 µM
  relative viability: 0.839
LU99A; first compound 0.08 µM
  relative viability: 0.242
LU99A; first compound 0.253 µM
  relative viability: 0.247
LU99A; first compound 0.8 µM
  relative viability: 0.263
LU99A; first compound 2.53 µM
  relative viability: 0.242
LU99A; first compound 8 µM
  relative viability: 0.233
NCI-H1944; first compound 0.08 µM
  relative viability: 0.634
NCI-H1944; first compound 0.253 µM
  relative viability: 0.665
NCI-H1944; first compound 0.8 µM
  relative viability: 0.644
NCI-H1944; first compound 2.53 µM
  relative viability: 0.668
NCI-H1944; first compound 8 µM
  relative viability: 0.719
NCI-H727; first compound 0.08 µM
  relative viability: 0.321
NCI-H727; first compound 0.253 µM
  relative viability: 0.3
NCI-H727; first compound 0.8 µM
  relative viability: 0.297
NCI-H727; first compound 2.53 µM
  relative viability: 0.593
NCI-H727; first compound 8 µM
  relative viability: 0.25
RERF-LC-KJ; first compound 0.08 µM
  relative viability: 1.09
RERF-LC-KJ; first compound 0.253 µM
  relative viability: 1.14
RERF-LC-KJ; first compound 0.8 µM
  relative viability: 1.08
RERF-LC-KJ; first compound 2.53 µM
  relative viability: 1.12
RERF-LC-KJ; first compound 8 µM
  relative viability: 0.964
EPLC-272H; first compound 0.08 µM
  relative viability: 0.622
EPLC-272H; first compound 0.253 µM
  relative viability: 0.557
EPLC-272H; first compound 0.8 µM
  relative viability: 0.185
EPLC-272H; first compound 2.53 µM
  relative viability: 0.244
EPLC-272H; first compound 8 µM
  relative viability: 0.206
LCLC-97TM1; first compound 0.08 µM
  relative viability: 0.89
LCLC-97TM1; first compound 0.253 µM
  relative viability: 0.689
LCLC-97TM1; first compound 0.8 µM
  relative viability: 0.62
LCLC-97TM1; first compound 2.53 µM
  relative viability: 0.632
LCLC-97TM1; first compound 8 µM
  relative viability: 0.679
BEN; first compound 0.08 µM
  relative viability: 0.3
BEN; first compound 0.253 µM
  relative viability: 0.413
BEN; first compound 0.8 µM
  relative viability: 0.324
BEN; first compound 2.53 µM
  relative viability: 0.368
BEN; first compound 8 µM
  relative viability: 0.331
LK-2; first compound 0.08 µM
  relative viability: 0.18
LK-2; first compound 0.253 µM
  relative viability: 0.165
LK-2; first compound 2.53 µM
  relative viability: 0.18
LK-2; first compound 8 µM
  relative viability: 0.188
NCI-H358; first compound 0.08 µM
  relative viability: 0.317
NCI-H358; first compound 0.253 µM
  relative viability: 0.382
NCI-H358; first compound 0.8 µM
  relative viability: 0.333
NCI-H358; first compound 2.53 µM
  relative viability: 0.399
NCI-H358; first compound 8 µM
  relative viability: 0.206
NCI-H1734; first compound 0.08 µM
  relative viability: 0.168
NCI-H1734; first compound 0.253 µM
  relative viability: 0.17
NCI-H1734; first compound 2.53 µM
  relative viability: 0.154
NCI-H1734; first compound 8 µM
  relative viability: 0.374
SK-MES-1; first compound 0.08 µM
  relative viability: 0.859
SK-MES-1; first compound 0.253 µM
  relative viability: 0.766
SK-MES-1; first compound 0.8 µM
  relative viability: 0.702
SK-MES-1; first compound 2.53 µM
  relative viability: 0.815
SK-MES-1; first compound 8 µM
  relative viability: 0.596
HCC-827; first compound 0.253 µM
  relative viability: 0.58
HCC-827; first compound 0.8 µM
  relative viability: 0.413
HCC-827; first compound 2.53 µM
  relative viability: 0.625
HCC-827; first compound 8 µM
  relative viability: 0.582
ChaGo-K-1; first compound 0.08 µM
  relative viability: 0.48
ChaGo-K-1; first compound 0.253 µM
  relative viability: 0.472
ChaGo-K-1; first compound 0.8 µM
  relative viability: 0.375
ChaGo-K-1; first compound 2.53 µM
  relative viability: 0.496
ChaGo-K-1; first compound 8 µM
  relative viability: 0.484
EKVX; first compound 0.08 µM
  relative viability: 0.699
EKVX; first compound 0.253 µM
  relative viability: 0.86
EKVX; first compound 0.8 µM
  relative viability: 0.807
EKVX; first compound 2.53 µM
  relative viability: 0.909
EKVX; first compound 8 µM
  relative viability: 0.802
COR-L 105; first compound 0.253 µM
  relative viability: 0.885
COR-L 105; first compound 0.8 µM
  relative viability: 0.631
COR-L 105; first compound 2.53 µM
  relative viability: 0.879
COR-L 105; first compound 8 µM
  relative viability: 0.687
LOU-NH91; first compound 0.08 µM
  relative viability: 0.377
LOU-NH91; first compound 0.253 µM
  relative viability: 0.345
LOU-NH91; first compound 0.8 µM
  relative viability: 0.399
LOU-NH91; first compound 2.53 µM
  relative viability: 0.359
LOU-NH91; first compound 8 µM
  relative viability: 0.313
EMC-BAC-2; first compound 0.08 µM
  relative viability: 1.13
EMC-BAC-2; first compound 0.253 µM
  relative viability: 1.1
EMC-BAC-2; first compound 0.8 µM
  relative viability: 1.18
EMC-BAC-2; first compound 2.53 µM
  relative viability: 1.18
EMC-BAC-2; first compound 8 µM
  relative viability: 1.16
